Each structure is given as a SMILES string. Like-named read-outs stand apart in the source and are kept apart here. *1 amine or outer side, *2 acyl side, *3 side chain or, on linkers, in order; H or OH if unused. Where a SMILES comes first, the peptide text is derived from it. Bridges are numbered along the chain shown (N, C = ends). [ ]: non-standard residue; d: D form. The star is where a group is joined. X4 = O=C(O)CN1CCN(CC(=O)O)CCN(CC(=O)NCCCOCCOCCOCCCN*)CCN(CC(=O)O)CC1; X1 = NC(=O)CC[C@H](N[*:1])C(=O)C[C@@H](Cc1ccccc1)C(=O)[*:2]; X11 = O=C(O)CN1CCN(CC(=O)O)CCN([C@H](CCC(=O)*)C(=O)O)CC1; DOTA = O=C(O)CN1CCN(CC(=O)O)CCN(CC(=O)*)CCN(CC(=O)O)CC1; X2 = O=C1NC(=O)C([*:3])=C1CC[C@H](N[*:1])C(=O)[*:2]; Maleimide(3,4-diyl) = O=C1NC(=O)C([*:2])=C1[*:1]; X7 = CN1C(=O)C([*:1])=C([*:2])C1=O; Suc = O=C(CCC(=O)[*:2])[*:1]; hCys = N[C@@H](CCS)C(=O)O; Nle = CCCC[C@H](N)C(=O)O; X3 = NCCNCC(CNCCN)C(=O)*; Hexanoyl = CCCCCC(=O)*

Experiment [1] has as its target T1, FAP-expressing human WI-38 fibroblasts (Homo sapiens, UniProt Q12884).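 Note: flow cytometry read-out of median Cy5 fluorescence on the cells, plotted versus test compound concentration, with IC50 derived by four-parameter logistic curve fitting.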
T1 construct: FAP-expressing human WI-38 fibroblasts (ECACC) were cultured in EMEM; host or cells: WI-38 human fibroblasts
The experiment can be described thus: Competitive FACS binding assay. (In general: Flow cytometry measures light scatter and fluorescence of single cells or particles in a stream.)

For the next experiment, the target named is T2, Recombinant human FAP (Homo sapiens, UniProt Q12884).
T2 construct: purchased R&D systems 3715-SE
T2 sequence (Q12884 26-760 limits assumed): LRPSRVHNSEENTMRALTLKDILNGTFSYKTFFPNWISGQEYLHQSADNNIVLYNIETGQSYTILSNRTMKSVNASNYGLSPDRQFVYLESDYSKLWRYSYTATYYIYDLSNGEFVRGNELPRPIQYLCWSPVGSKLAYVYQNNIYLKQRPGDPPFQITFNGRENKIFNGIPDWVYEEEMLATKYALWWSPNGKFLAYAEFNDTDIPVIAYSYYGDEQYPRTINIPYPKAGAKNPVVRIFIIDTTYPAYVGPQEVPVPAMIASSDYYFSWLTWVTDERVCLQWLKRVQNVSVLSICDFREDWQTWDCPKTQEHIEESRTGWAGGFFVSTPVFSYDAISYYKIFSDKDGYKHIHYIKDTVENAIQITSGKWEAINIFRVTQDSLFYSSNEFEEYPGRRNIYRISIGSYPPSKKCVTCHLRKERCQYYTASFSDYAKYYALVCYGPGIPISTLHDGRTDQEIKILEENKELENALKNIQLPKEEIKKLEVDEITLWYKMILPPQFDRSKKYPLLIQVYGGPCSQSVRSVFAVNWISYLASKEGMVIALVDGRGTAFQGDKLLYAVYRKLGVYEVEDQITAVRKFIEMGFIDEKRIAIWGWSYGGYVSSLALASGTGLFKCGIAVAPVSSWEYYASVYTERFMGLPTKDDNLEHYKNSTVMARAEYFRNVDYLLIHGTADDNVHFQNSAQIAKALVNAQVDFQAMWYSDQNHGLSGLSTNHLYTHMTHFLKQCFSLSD
Nature of the experiment: FRET-based FAP protease activity assay. Format: biochemical.

Setting [2] is: competition with 3 nM Cy5-labeled compound, WI-38 fibroblasts, 4° C., 1 hour, read-out: pIC50 Category (FACS) (converted).
Where [3] appears, read: recombinant human FAP, FRET-peptide substrate, 37° C., read-out: pIC50 Category (Activity) (converted).

T1 sequence (Q12884 whole entry): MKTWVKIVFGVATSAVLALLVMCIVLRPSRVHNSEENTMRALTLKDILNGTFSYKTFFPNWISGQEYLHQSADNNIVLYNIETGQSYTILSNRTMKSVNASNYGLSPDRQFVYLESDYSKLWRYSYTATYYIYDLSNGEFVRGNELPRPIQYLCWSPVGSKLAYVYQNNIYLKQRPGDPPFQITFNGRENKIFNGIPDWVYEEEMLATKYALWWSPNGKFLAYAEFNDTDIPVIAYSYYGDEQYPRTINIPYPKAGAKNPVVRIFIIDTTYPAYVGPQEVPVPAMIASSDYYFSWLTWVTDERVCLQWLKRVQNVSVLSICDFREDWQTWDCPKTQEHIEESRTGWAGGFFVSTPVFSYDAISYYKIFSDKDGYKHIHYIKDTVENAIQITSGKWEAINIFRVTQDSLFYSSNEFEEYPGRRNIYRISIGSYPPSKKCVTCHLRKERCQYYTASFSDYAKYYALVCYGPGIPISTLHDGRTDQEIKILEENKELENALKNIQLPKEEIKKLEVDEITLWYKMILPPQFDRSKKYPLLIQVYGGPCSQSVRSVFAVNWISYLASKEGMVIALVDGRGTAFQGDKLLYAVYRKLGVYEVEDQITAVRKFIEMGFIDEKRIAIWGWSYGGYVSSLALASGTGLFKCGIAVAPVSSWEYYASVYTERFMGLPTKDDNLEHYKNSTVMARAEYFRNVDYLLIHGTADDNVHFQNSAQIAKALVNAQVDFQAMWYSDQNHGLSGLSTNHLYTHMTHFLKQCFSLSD

With `CCCCCC(=O)N[C@H]1CSSC[C@@H](C(=O)N[C@@H](CC(=O)O)C(=O)N[C@@H](CCCCNC(=O)C(CNCCN)CNCCN)C(N)=O)NC(=O)[C@H](Cc2ccccc2)NC(=O)[C@H](CCC(=O)O)NC(=O)[C@H]([C@@H](C)O)NC(=O)[C@@H]2CCCN2C(=O)[C@@H]2CCCN2C1=O` [Compound 1021, Hex-[Cys-Pro-Pro-Thr-Glu-Phe-Cys]-Asp-Lys(N4Ac)—NH2] (Hexanoyl-CPPTEFCDK(X3)-NH2; disulfide 1-7), the IC50 (in experiment [1] (setting [2]); at Recombinant human FAP (setting [3])) was less than 100 nM in each case.

For `CCCCCC(=O)N[C@H]1CSC2=C(SC[C@@H](C(=O)O)NC(=O)[C@H](Cc3ccccc3)NC(=O)[C@H](CCC(N)=O)NC(=O)[C@H]([C@@H](C)O)NC(=O)[C@@H]3CCCN3C(=O)[C@@H]3CCCN3C1=O)C(=O)N(CCCOCCOCCOCCCNC(=O)CN1CCN(CC(=O)O)CCN(CC(=O)O)CCN(CC(=O)O)CC1)C2=O` [Compound 2019, Hex-[Cys(mli(DOTA-Ttd))-Pro-Pro-Thr-Gln-Phe-Cys]-OH], the IC50 (in experiment [1] (setting [2]); on Recombinant human FAP (setting [3])) was less than 100 nM in each case.

`CCCC[C@H](NC(=O)CCC(=O)NCCCOCCOCCOCCCNC(=O)CN1CCN(CC(=O)O)CCN(CC(=O)O)CCN(CC(=O)O)CC1)C(=O)N[C@H]1CSSC[C@@H](C(=O)N[C@@H](CC(=O)O)C(N)=O)NC(=O)[C@H](Cc2ccccc2)NC(=O)[C@H](CCC(=O)O)NC(=O)[C@H]([C@@H](C)O)NC(=O)[C@@H]2CCCN2C(=O)[C@@H]2CCCN2C1=O` [Compound 1003, DOTA-Ttds-Nle-[Cys-Pro-Pro-Thr-Glu-Phe-Cys]-Asp-NH2] ({X4-Suc}-[Nle]CPPTEFCD-NH2; disulfide 2-8): the IC50 (in experiment [1] (setting [2]); on Recombinant human FAP (setting [3])) was less than 100 nM throughout.

On to `CCCC[C@H](NC(=O)CCC(=O)NCCCOCCOCCOCCCNC(=O)CN1CCN(CC(=O)O)CCN(CC(=O)O)CCN(CC(=O)O)CC1)C(=O)N[C@H]1CSC2=C(SC[C@@H](C(=O)N[C@@H](CC(=O)O)C(N)=O)NC(=O)[C@H](Cc3ccccc3)NC(=O)[C@H](CCC(N)=O)NC(=O)[C@H]([C@@H](C)O)NC(=O)[C@@H]3CCCN3C(=O)[C@@H]3CCCN3C1=O)C(=O)N(C)C2=O` [Compound 2016, DOTA-Ttds-Nle-[Cys(mli(Me))-Pro-Pro-Thr-Gln-Phe-Cys]-Asp-NH2] ({X4-Suc}-[Nle]CPPTQFCD-NH2; linker 2-8 via X7), for which the IC50 (in experiment [1] (setting [2]); at Recombinant human FAP (setting [3])) was less than 100 nM in each case.

Turning to `CCCCCC(=O)N[C@H]1CSC2=C(CC[C@@H](C(=O)N[C@@H](CC(=O)O)C(=O)N[C@@H](CCCCNC(=O)C(CNCCN)CNCCN)C(N)=O)NC(=O)[C@H](Cc3ccccc3)NC(=O)[C@H](CCC(N)=O)NC(=O)[C@H]([C@@H](C)O)NC(=O)[C@@H]3CCCN3C(=O)[C@@H]3CCCN3C1=O)C(=O)NC2=O` [Compound 2024, Hex-[Cys(mli)-Pro-Pro-Thr-Gln-Phe-Cys]-Asp-Lys(N4Ac)-NH2] (Hexanoyl-CPPTQF[X2]DK(X3)-NH2; thioether 1-7), the IC50 (in experiment [1] (setting [2]); at Recombinant human FAP (setting [3])) was less than 100 nM each time.

For the compound `CCCCCC(=O)N[C@H]1CSSC[C@@H](C(=O)N[C@@H](CC(=O)O)C(=O)N[C@@H](CCCCNC(=O)CC[C@H](C(=O)O)N2CCN(CC(=O)O)CCN(CC(=O)O)CC2)C(N)=O)NC(=O)[C@H](Cc2ccccc2)NC(=O)[C@H](CCC(=O)O)NC(=O)[C@H]([C@@H](C)O)NC(=O)[C@@H]2CCCN2C(=O)[C@@H]2CCCN2C1=O` [Compound 1020, Hex-[Cys-Pro-Pro-Thr-Glu-Phe-Cys]-Asp-Lys(NODAGA)-NH2] (Hexanoyl-CPPTEFCDK(X11)-NH2; disulfide 1-7), the IC50 (in experiment [1] (setting [2]); at Recombinant human FAP (setting [3])) was less than 100 nM throughout.

Consider `CCCC[C@H](NC(=O)COCCOCCNC(=O)CN1CCN(CC(=O)O)CCN(CC(=O)O)CCN(CC(=O)O)CC1)C(=O)N[C@H]1CSSC[C@@H](C(=O)N[C@@H](CC(=O)O)C(=O)N[C@@H](Cc2c[nH]cn2)C(=O)N[C@@H](Cc2ccccc2)C(=O)N[C@@H](CCCNC(=N)N)C(=O)N[C@@H](CC(=O)O)C(N)=O)NC(=O)[C@H](Cc2ccccc2)NC(=O)[C@H](CCC(=O)O)NC(=O)[C@H]([C@@H](C)O)NC(=O)[C@@H]2CCCN2C(=O)[C@@H]2CCCN2C1=O` [Compound 1005, DOTA-O2Oc-Nle-[Cys-Pro-Pro-Thr-Glu-Phe-Cys]-Asp-His-Phe-Arg-Asp-NH2] (HELM PEPTIDE1{[O=C(O)CN1CCN(CC(=O)O)CCN(CC(=O)[*:2])CCN(CC(=O)O)CC1].[O=C(COCCOCCN[*:1])[*:2]].[Nle].C.P.P.T.E.F.C.D.H.F.R.D.[am]}$PEPTIDE1,PEPTIDE1,4:R3-10:R3$$$V2.0), for which the IC50 in experiment [1] (setting [2]) was less than 100 nM; in experiment [1] (read-out: pIC50 (highest activity categories, FACS binding) (converted)), less than 100 nM; on Recombinant human FAP (read-out: pIC50 (highest activity categories, FAP activity) (converted)), less than 100 nM; on Recombinant human FAP (setting [3]) it was less than 100 nM.

Regarding `CCCC[C@H](NC(=O)CCC(=O)NCCCOCCOCCOCCCNC(=O)CN1CCN(CC(=O)O)CCN(CC(=O)O)CCN(CC(=O)O)CC1)C(=O)N[C@H]1CSC2=C(SC[C@@H](C(=O)NCCC(=O)O)NC(=O)[C@H](Cc3ccccc3)CC(=O)[C@H](CCC(N)=O)NC(=O)[C@H]([C@@H](C)O)NC(=O)[C@@H]3CCCN3C(=O)[C@@H]3CCCN3C1=O)C(=O)NC2=O` [Compound 2009, DOTA-Ttds-Nle-[Cys(mli)-Pro-Pro-Thr-Gln-Phe-Cys]-Bal-OH], the IC50 (in experiment [1] (setting [2]); at Recombinant human FAP (setting [3])) was less than 100 nM throughout.

Turning to `CCCCCC(=O)N[C@H]1CSC2=C(SC[C@@H](C(=O)N[C@@H](CC(=O)O)C(N)=O)NC(=O)[C@H](Cc3ccccc3)NC(=O)[C@H](CCC(N)=O)NC(=O)[C@H]([C@@H](C)O)NC(=O)[C@@H]3CCCN3C(=O)[C@@H]3CCCN3C1=O)C(=O)N(CCCC(=O)CN1CCN(CC(=O)O)CCN(CC(=O)O)CCN(CC(=O)O)CC1)C2=O` [Compound 2018, Hex-[Cys(mli(DOTA-Eda))-Pro-Pro-Thr-Gln-Phe-Cys]-Asp-NH2] (HELM PEPTIDE1{[CCCCCC(=O)[*:2]].C.P.P.T.Q.F.C.D.[am]}|CHEM1{[O=C(O)CN1CCN(CC(=O)O)CCN(CC(=O)CCCN2C(=O)C([*:1])=C([*:2])C2=O)CCN(CC(=O)O)CC1]}$PEPTIDE1,CHEM1,2:R3-1:R1|PEPTIDE1,CHEM1,8:R3-1:R2$$$V2.0), the IC50 (in experiment [1]; at Recombinant human FAP) was less than 100 nM throughout.

Turning to `CCCCCC(=O)N[C@H]1CCSSCC[C@@H](C(=O)N[C@@H](CC(=O)O)C(N)=O)NC(=O)[C@H](Cc2ccccc2)NC(=O)[C@H](CCC(N)=O)NC(=O)[C@H]([C@@H](C)O)NC(=O)[C@@H]2CCCN2C(=O)[C@@H]2CCCN2C1=O` [Compound 2002, Hex-[Hcy-Pro-Pro-Thr-Gln-Phe-Hcy]-Asp-NH2] (Hexanoyl-[hCys]PPTQF[hCys]D-NH2; disulfide 1-7), the IC50 (in experiment [1] (setting [2]); at Recombinant human FAP (setting [3])) was less than 100 nM each time.

Take `CCCC[C@H](NC(=O)CN1CCN(CC(=O)O)CCN(CC(=O)O)CCN(CC(=O)O)CC1)C(=O)N[C@H]1CSC2=C(SC[C@@H](C(=O)N[C@@H](CC(=O)O)C(N)=O)NC(=O)[C@H](Cc3ccccc3)CC(=O)[C@H](CCC(N)=O)NC(=O)[C@H]([C@@H](C)O)NC(=O)[C@@H]3CCCN3C(=O)[C@@H]3CCCN3C1=O)C(=O)NC2=O` [Compound 2003, DOTA-Nle-[Cys(mli)-Pro-Pro-Thr-Gln-Phe-Cys]-Asp-NH2] ({DOTA}-[Nle]CPPT[X1]CD-NH2; linker 2-7 via Maleimide(3,4-diyl)): the IC50 (in experiment [1] (setting [2]); on Recombinant human FAP (setting [3])) was less than 100 nM each time.

The record behind these values is patent US20240115745A1, “COMPOUNDS COMPRISING A FIBROBLAST ACTIVATION PROTEIN LIGAND AND USE THEREOF” (3B PHARMACEUTICALS GMBH, priority 2021, published 2024).
